One data set relates to p21. Briefly: Western blot of p21 in QGP-1 cells. It counts as cell-based, human. To be noted: QGP-1, 50-100 nM (so in the source), 24 h. As for the experimental part: After drug treatment, the cells are lysed and centrifuged to collect the protein extract After determination of protein content, the samples protein are denatured at 100° C. for 5 min Proteins are separated by 10-12% SDS-PAGE and transferred to PVDF membranes (Bio-Rad, CA). After blocking with 5% nonfat milk for 1 h at room temperature, the membranes are incubated overnight at 4° C. with primary antibodies (mouse anti-cyclin BE 1:500, Abcam; goat anti-p-Cdc2:1:500, Santa Cruz; mouse anti-p21: 1:500, BD Bioscience). After washing three times in TBST, the membranes where incubated with the appropriate secondary antibodies (1:2000, Invitrogen) for 1 h at room temperature. The immunoreaction is detected using ECL Western blotting kit (ECL, Amersham, UK). Bands are visualized on Biomax X-ray film, and optical density of each band is semi-quantified by software (Image J.NIH). In order to adjust for any variations in loading, all detected protein bands are normalized to β-actin levels.
For orientation: Immunoblotting shows a protein as a band on a membrane.

In data set [1] the test system is QGP-1 cells. Briefly: Apoptosis by DAPI staining, fluorescence microscopy. It counts as cell-based, human. The conditions noted are these: QGP-1, 25~100 μM, 24 h. The procedure:
Cells are seeded on coverslips in 24-well plate at the density of 100,000 cells per well and cultured overnight. After exposure to DMSO (control) or different concentration of Quercetin for 24 h, cells are washed three times and fixed with 4% paraformaldehyde for 20 min at room temperature. After washing in PBS, cells are permeabilized in 0.2% tritonX-100 for 10 min and stained with DAPI (20 μg/ml) for 10 min at room temperature in darkness. Slides are examined with a laser scanning microscope (Olympus Fluoview FV1000) 40× magnification. Three hundred cells are counted per slide randomly as previously reported in Ramage L, Jones A C, Whelan C J. Induction of apoptosis with tobacco smoke and related products in A549 lung epithelial cells in vitro. J Inflamm (Lond). 2006; 3:3. Apoptosis cells condense or fragment nuclear chromatin with or without apoptotic bodies, while normal cells have typical morphology with smooth nuclear and membrane.

The next data set deals with humans. The conditions noted are these: 1000 mg/kg/day orally for several months; cited from earlier work.
Data set [2] relates to QGP-1 cells. Briefly: Cell viability (MTT assay). It counts as cell-based. The conditions noted are these: Homo sapiens. As for the experimental part:
To investigate the underlying mechanisms of Quercein on EC cell hyperplasia, a EC cell model, QGP-1 cell line is used as EC cell model. Human pancreatic carcinoma QGP-1 cells (JCRB0183, HSRRB, Japan) are cultured in RPMI 1640 supplemented with 10% fetal bovine serum, 100 IU/ml penicillin, and 100 μg/ml streptomycin in a humidified atmosphere of 95% air and 5% CO2 at 37° C. Cells are passaged using 0.025% trypsin and 0.01% EDTA. Cells are trypsinized and seeded in 96-well culture dishes at a density of 5,000-8,000 cells/well and cultured for 24 h or 48 h in the presence of Quercetin (0-100 μM, 0.01% DMSO).
3-(4,5-dimethylthiazol-2yl-)-2,5-diphenyl tetrazolium bromide (MTT) is used to evaluate cell viability. In this assay, cells are seeded in 96-well dishes and cultured for […] in the presence of Quercetin. Subsequently, the culture medium is replaced with 100 μl/well fresh medium containing 0.5 mg/ml MTT, and the cells are further incubated for 4 h at 37° C. The reaction is stopped by adding 100 μl/well 10% SDS in 0.1 M HCl, the absorbance of the plates is read at 570 nm The percent of cell survival is calculated by comparing the average absorbance of the Quercetin treated cells with the corresponding absorbance of the DMSO treated cells. All doses are tested in triplicates and repeated for at least three times.
For orientation: Formazan colour is commonly taken as a measure of viable cells.

Data set [3] has as its system QGP-1 cells. Briefly: Sub-G0/G1 fraction by flow cytometry. To be noted: QGP-1, 25~100 μM, 24 h. In kind it is cell-based, human. The procedure:
QGP-1 cells are seeded at a density of 10×10^4 cells/ml and pre-incubated overnight. After incubation with or without Quercetin (0-100 μM) for 24 h, cells are harvested by trypsinization and fixed in 70% ethanol at 4° C. overnight. The cells are centrifuged to remove ethanol and washed twice using ice-cold PBS. The cell pallets are resuspended in 500 n1 propidium iodide solution (0.1% Triton X-100, 50 μg/ml propidium iodide in PBS) containing 50 μg/ml RNase and incubated at 37° C. for 30 min and protected from the light. The DNA content of 10,000 cells is detected by BD FASCanto Flow Cytometry and analyzed using CellFit software (Becton Dickinson, Heidelberg, Germany). The data are representative of those obtained in at least three experiments.
For flow cytometric analysis, cells with sub-G0/G1 DNA content are stained with propidium iodide, and the methods are as described in section 2 of Example 8. […] Based on the results form LDH assay and apoptosis detection, Quercetin indeed has cytotoxicity and can further induce cell apoptosis.
In general terms: In flow cytometry, cells or beads pass a laser one at a time.

Data on one compound can be found in patent US20130210907A1, “METHOD FOR PREVENTING OR TREATING ENTEROCHROMAFFIN CELL HYPERPLASIA-RELATED DISEASES BY QUERCETIN ADMINISTRATION” (HONG KONG BAPTIST UNIVERSITY, priority 2012, published 2013).

pIC50: −log10 of the molar value.

For the compound `O=c1c(O)c(-c2ccc(O)c(O)c2)oc2cc(O)cc(O)c12` [Quercetin, 2-(3,4-dihydroxyphenyl)-3,5,7-trihydroxy-4H-chromen-4-one], the “Protein level of p21” value in the data set with p21 was “significantly increased”. Also, the Apoptosis rate result in the data set on QGP-1 cells [1] is “concentration-dependently increases”. Further, in the data set with humans, the “Toxicity on oral administration to humans” value is “no toxicity”. For the same compound, in the data set on QGP-1 cells [2] (QGP-1, 24 h, at about 100 μM, read-out: Reduction of cell viability in comparison with the control), the cytotoxicity at 100 µM was around 50%. Also, the pIC50 (usually the negative decadic logarithm of the IC50, by convention in mol/L) in the data set with QGP-1 cells [2] (QGP-1, 48 h incubation) is around 4.30. In addition, in the data set with QGP-1 cells [3], the Sub-G0/G1 fraction entry is “concentration-dependently increases”.
